Assay results reported in PubChem BioAssay AID1963840 (Molecular Pharmacology Branch, DTP, NCI, 2024).

Tested on: 695427-040-R-J1-PDC complex spheroid viability
Assay: Anticancer human tumor 695427-040-R-J1-PDC patient-derived colon adenocarcinoma cell line growth inhibition [POLQ]
Settings: for IC50: curve of first compound; for viability, T/C: stronger effect = lower value
Procedure: Multicellular complex tumor spheroid response to Polymerase (POL) inhibitors (novobiocin, ART-558, RP6685) in combination with a variety of drugs and investigational agents in selected tumor cell lines
The POL inhibitors (novobiocin, ART-558, and RP6685) were evaluated both individually and in combination with standard of care and investigational anticancer small molecules within a complex spheroid model of solid tumors. . Complex spheroids include a stromal component modeled by human endothelial cells (HUVEC) and fibroblasts modeled by human mesenchymal stem cells (MSCs). The concentration ranges selected for each drug and investigational agent were based upon clinically achievable concentrations if the clinical Cmax of the agent was known.
Compounds. The drugs and investigational agents: novobiocin (NSC847541), ART-558 (NSC835418), RP-6685 (NSC848927), peposertib (NSC802822), ceralasertib (NSC780249), elimusertib (NSC800525), camonsertib (NSC841442), AZD-1390 (NSC803789), olaparib (NSC753686), talazoparib (NSC767125), rucaparib (NSC756644), sotorasib (NSC818433), MRTX-1133 (NSC836407), SN-38 (NSC673596), topotecan (NSC609699), epotoside (NSC141540), doxorubicin (NSC123127), gemcitabine (NSC613327), 5-fluorouracil (NSC19893), paclitaxel (NSC125973), vemurafenib (NSC761431), MSA-2 (NSC828583), SN-011 (NSC837082), adavosertib (NSC754352), prexasertib (NSC758257), carboplatin (NSC241240) and oxaliplatin (NSC266046), were obtained from the National Cancer Institute (NCI) Developmental Therapeutics Program Chemical Repository (21). The FDA-approved anticancer drug set is available from the Developmental Therapeutics Program at https://dtp.cancer.gov/organization/dscb/obtaining/. […] The stock solutions were prepared in dimethyl sulfoxide (DMSO, Sigma-Aldrich, St. Louis, MO, cat. D2650), except for the platinum compounds which were prepared in saline (Quality Biological, Gaithersburg, MD, cat. 114-055-101), at 800-fold the tested concentration and stored at -70 degrees C prior to their use. All drugs and investigational agents were tested over a range starting from a high concentration at or near the clinical Cmax and decreasing in half-log increments. If the clinical Cmax for an agent had not been determined, the highest concentration tested was 10 microM, except for SN-38, which was tested at a high concentration of 1 microM.
Cell Culture. All cells were maintained in an incubator at 37 degrees C and 5% CO2 with 95% humidity. The PDC lines were cultured according to standard operating procedures established by the NCI PDMR (https://pdmr.cancer.gov). Table 3 of the manuscript, lists the cell lines along with the number of the three cell types plated to form the mct-spheroids and media for tumor cell growth. After thawing, all PDC lines, except 997537-175-T-J1-PDC and 415267-285-R-J2-PDC, were cultured in Matrigel-coated flasks prepared with a working solution of 1X Ham's F-12 nutrient mix, without supplementation (Thermo Fisher Scientific, cat. 11765054), 100 U/mL penicillin-streptomycin (Thermo Fisher Scientific, cat. 15140122), and 2.5% Matrigel (Corning Inc., Corning, NY, cat. 354248) for the first three passages. The two PDC lines 997537-175-T-J1-PDC and 415267-285-R-J2-PDC were cultured on uncoated flasks. The 857933-349-R-J2-PDC line was cultured in 6C/Colon 1B media containing advanced DMEM/F-12 (Thermo Fisher Scientific, cat. 12634028), 10 mM HEPES (Thermo Fisher Scientific, cat. 15630080), 1X GlutaMAX supplement (Thermo Fisher Scientific, cat. 35050061), 0.1 mg/mL primocin (InvivoGen, San Diego, CA, cat. ant-pm-2), 10% defined fetal bovine serum, heat inactivated (HyClone Laboratories Inc., Logan, UT, cat. SH30070.03HI), 50% L-WRN conditioned media (ATCC, cat. CRL-3276), 1.25 mM N-Acetyl-L-cysteine (Sigma-Aldrich, cat. A9165), 10 mM nicotinamide (Sigma-Aldrich, cat. N0636), 1X B-27 supplement (Thermo Fisher Scientific, cat. 17504044), 1X N-2 supplement (Thermo Fisher Scientific, cat. […]

[1] = second compound 0.0316 µM, first compound 0.00316 µM
[2] = second compound 0.0316 µM, first compound 0.01 µM
[3] = second compound 0.0316 µM, first compound 0.0316 µM
[4] = second compound 0.0316 µM, first compound 0.1 µM
[5] = second compound 0.0316 µM, first compound 0.316 µM
[6] = second compound 0.0316 µM, first compound 1 µM
[7] = second compound 0.1 µM, first compound 0.00316 µM
[8] = second compound 0.1 µM, first compound 0.01 µM
[9] = second compound 0.1 µM, first compound 0.0316 µM
[10] = second compound 0.1 µM, first compound 0.1 µM
[11] = second compound 0.1 µM, first compound 0.316 µM
[12] = second compound 0.1 µM, first compound 1 µM
[13] = second compound 0.316 µM, first compound 0.00316 µM
[14] = second compound 0.316 µM, first compound 0.01 µM
[15] = second compound 0.316 µM, first compound 0.0316 µM
[16] = second compound 0.316 µM, first compound 0.1 µM
[17] = second compound 0.316 µM, first compound 0.316 µM
[18] = second compound 0.316 µM, first compound 1 µM
[19] = second compound 1 µM, first compound 0.00316 µM
[20] = second compound 1 µM, first compound 0.01 µM
[21] = second compound 1 µM, first compound 0.0316 µM
[22] = second compound 1 µM, first compound 0.1 µM
[23] = second compound 1 µM, first compound 0.316 µM
[24] = second compound 1 µM, first compound 1 µM
[25] = second compound 3.16 µM, first compound 0.00316 µM
[26] = second compound 3.16 µM, first compound 0.01 µM
[27] = second compound 3.16 µM, first compound 0.0316 µM
[28] = second compound 3.16 µM, first compound 0.1 µM
[29] = second compound 3.16 µM, first compound 0.316 µM
[30] = second compound 3.16 µM, first compound 1 µM
[31] = second compound 10 µM, first compound 0.00316 µM
[32] = second compound 10 µM, first compound 0.01 µM
[33] = second compound 10 µM, first compound 0.0316 µM
[34] = second compound 10 µM, first compound 0.1 µM
[35] = second compound 10 µM, first compound 0.316 µM
[36] = second compound 10 µM, first compound 1 µM
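Further: spheroids exposed to compounds for seven days.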
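Wherever viability, T/C is given: 100% = DMSO vehicle control viability.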

Which IC50 (second compound 0.0316 µM) does the source give for `CCc1c2c(nc3ccc(O)cc13)-c1cc3c(c(=O)n1C2)COC(=O)[C@]3(O)CC` + COC1C(OC(N)=O)C(O)C(Oc2ccc3c(O)c(NC(=O)c4ccc(O)c(CC=C(C)C)c4)c(=O)oc3c2C)OC1(C)C here?
The IC50 was 0.976 µM.

And the IC50 (second compound 0.1 µM)?
The IC50 was 0.893 µM.

And the IC50 (second compound 0.316 µM)?
Its IC50 is > 1 µM.

And the IC50 (second compound 1 µM)?
The IC50 was 0.985 µM.

And the IC50 (second compound 3.16 µM)?
The IC50 was 0.809 µM.

What about the IC50 (second compound 10 µM) of the same molecule?
The IC50 was 0.656 µM.

What about the viability, T/C [1] of the same molecule?
The viability, T/C was 97.5%.

And the viability, T/C [2]?
The viability, T/C was 89%.

What about the viability, T/C [3] of the same molecule?
Its viability, T/C is 82.6%.

And the viability, T/C [4]?
Its viability, T/C is 78.9%.

And the viability, T/C [5]?
Its viability, T/C is 68.2%.

What about the viability, T/C [6] of the same molecule?
Its viability, T/C is 48.1%.

What about the viability, T/C [7] of the same molecule?
The viability, T/C was 102%.

And the viability, T/C [8]?
Its viability, T/C is 91.4%.

And the viability, T/C [9]?
The viability, T/C was 86.9%.

What about the viability, T/C [10] of the same molecule?
Its viability, T/C is 78.4%.

And the viability, T/C [11]?
Its viability, T/C is 68.4%.

What about the viability, T/C [12] of the same molecule?
The viability, T/C was 46.9%.

What about the viability, T/C [13] of the same molecule?
Its viability, T/C is 107%.

What about the viability, T/C [14] of the same molecule?
The viability, T/C was 94.4%.

And the viability, T/C [15]?
Its viability, T/C is 78.8%.

What about the viability, T/C [16] of the same molecule?
The viability, T/C was 78.3%.

And the viability, T/C [17]?
Its viability, T/C is 68.8%.

And the viability, T/C [18]?
Its viability, T/C is 50.5%.

And the viability, T/C [19]?
Its viability, T/C is 97.3%.

What about the viability, T/C [20] of the same molecule?
The viability, T/C was 97.5%.

What about the viability, T/C [21] of the same molecule?
The viability, T/C was 81.7%.

What about the viability, T/C [22] of the same molecule?
The viability, T/C was 78.9%.

And the viability, T/C [23]?
The viability, T/C was 69.1%.

And the viability, T/C [24]?
Its viability, T/C is 48.4%.

And the viability, T/C [25]?
Its viability, T/C is 97%.

And the viability, T/C [26]?
The viability, T/C was 90.9%.

What about the viability, T/C [27] of the same molecule?
The viability, T/C was 87.7%.

And the viability, T/C [28]?
Its viability, T/C is 75.8%.

And the viability, T/C [29]?
Its viability, T/C is 63.2%.

And the viability, T/C [30]?
Its viability, T/C is 47%.

And the viability, T/C [31]?
Its viability, T/C is 98.7%.

What about the viability, T/C [32] of the same molecule?
The viability, T/C was 84.6%.

And the viability, T/C [33]?
The viability, T/C was 85.7%.

What about the viability, T/C [34] of the same molecule?
Its viability, T/C is 74.5%.

And the viability, T/C [35]?
The viability, T/C was 64.2%.

And the viability, T/C [36]?
The viability, T/C was 42%.

For `COc1cccc(OCCCN)c1-c1cc(Nc2cnc(C#N)cn2)n[nH]1` + COC1C(OC(N)=O)C(O)C(Oc2ccc3c(O)c(NC(=O)c4ccc(O)c(CC=C(C)C)c4)c(=O)oc3c2C)OC1(C)C, which IC50 (second compound 0.0316 µM) is on record?
The IC50 was 0.386 µM.

And the IC50 (second compound 0.1 µM)?
Its IC50 is 0.535 µM.

And the IC50 (second compound 0.316 µM)?
The IC50 was 0.46 µM.

And the IC50 (second compound 1 µM)?
Its IC50 is 0.391 µM.

And the IC50 (second compound 3.16 µM)?
The IC50 was 0.449 µM.

What about the IC50 (second compound 10 µM) of the same molecule?
Its IC50 is 0.465 µM.

What about the viability, T/C [1] of the same molecule?
Its viability, T/C is 103%.

What about the viability, T/C [2] of the same molecule?
The viability, T/C was 94.2%.

What about the viability, T/C [3] of the same molecule?
The viability, T/C was 81.1%.

And the viability, T/C [4]?
The viability, T/C was 70.2%.

And the viability, T/C [5]?
Its viability, T/C is 50.3%.

What about the viability, T/C [6] of the same molecule?
The viability, T/C was 39.7%.

And the viability, T/C [7]?
Its viability, T/C is 109%.

And the viability, T/C [8]?
The viability, T/C was 84.2%.

What about the viability, T/C [9] of the same molecule?
The viability, T/C was 81%.

What about the viability, T/C [10] of the same molecule?
Its viability, T/C is 69.7%.

What about the viability, T/C [11] of the same molecule?
Its viability, T/C is 56%.

And the viability, T/C [12]?
Its viability, T/C is 42.2%.

And the viability, T/C [13]?
The viability, T/C was 101%.

And the viability, T/C [14]?
The viability, T/C was 93%.

What about the viability, T/C [15] of the same molecule?
Its viability, T/C is 85%.

What about the viability, T/C [16] of the same molecule?
Its viability, T/C is 73.1%.

And the viability, T/C [17]?
Its viability, T/C is 54%.

What about the viability, T/C [18] of the same molecule?
The viability, T/C was 39.2%.

What about the viability, T/C [19] of the same molecule?
Its viability, T/C is 102%.

What about the viability, T/C [20] of the same molecule?
The viability, T/C was 93.7%.

What about the viability, T/C [21] of the same molecule?
The viability, T/C was 83.7%.

And the viability, T/C [22]?
The viability, T/C was 66.3%.

And the viability, T/C [23]?
The viability, T/C was 53.9%.

And the viability, T/C [24]?
Its viability, T/C is 38.1%.

And the viability, T/C [25]?
Its viability, T/C is 107%.

What about the viability, T/C [26] of the same molecule?
Its viability, T/C is 95.1%.

What about the viability, T/C [27] of the same molecule?
The viability, T/C was 86.3%.

And the viability, T/C [28]?
Its viability, T/C is 67.2%.

And the viability, T/C [29]?
Its viability, T/C is 56.3%.

What about the viability, T/C [30] of the same molecule?
Its viability, T/C is 38.7%.

What about the viability, T/C [31] of the same molecule?
The viability, T/C was 100%.

What about the viability, T/C [32] of the same molecule?
Its viability, T/C is 84.9%.

What about the viability, T/C [33] of the same molecule?
Its viability, T/C is 81.1%.

And the viability, T/C [34]?
Its viability, T/C is 68.9%.

And the viability, T/C [35]?
Its viability, T/C is 55.2%.

What about the viability, T/C [36] of the same molecule?
The viability, T/C was 39.8%.
